# Experimental data published in patent US10981904B2, “1,3,4-thiadiazole compounds and their use in treating cancer” (Cancer Research Technology Limited, priority 2015, dated 2021).
# System: NCI-H1703 cells
# Assay: GLS Cell Proliferation Assay (NCI-H1703 cell proliferation)
# Format: cell-based
# Conditions: Homo sapiens, NCI-H1703, 120 h, NCI-H1703 cells, 5 days; read-out: Assay c) Prolif Mean IC50
# Description: The following assays were used to measure the effects of the compounds described herein: a) GLS Enzyme Potency Assay; b) GLS Cell Potency Assay; c) GLS Cell Proliferation Assay. During the description of the assays, generally: • i. The following abbreviations have been used: CO2=Carbon dioxide; DMEM=Dulbecco's Modified Eagle Medium; DMSO=Dimethyl sulphoxide; EDTA=Ethylenediaminetetraacetic acid; EGTA=Ethylene glycol tetraacetic acid; FCS=Foetal calf serum; h=Hour(s); NBS=Non-binding surface; SDS=Sodium dodecyl sulphate; TRIS=Tris(Hydroxymethyl)aminomethane. • ii. IC50 values were calculated using a smart fitting model in Genedata.
# Assay c): GLS Cell Proliferation Assay
# The ability of compounds to inhibit cell growth was measured using a 384 well plate NCI-H1703 cell proliferation assay. NCI-H1703 cells were grown in phenol red free RPMI1640, 10% FCS and 2 mM glutamine and seeded at a density of 750 cells per well in 40 μl of growth medium into clear-bottom 384 well assay plates (Corning product code 3712) and incubated for 24 h at 37° C., 5% CO2. […] DMSO concentration was maintained at 0.3% by back filling with DMSO solution. Plates were incubated for 5 days at 37° C., 5% CO2, Sytox Green and Saponin added to final concentration of 2 μM and 0.25% respectively and incubated for 6 h prior to analysis. […] IC50 values were calculated by curve fitting to max inhibition of day zero growth using GeneData software analysis.
row,IC50 [nM],SMILES
1,2.65,"COC1CN(c2cccc([C@H](OC)C(=O)Nc3nnc(N[C@@H]4CCN(c5cccnn5)C4)s3)c2)C1 (single isomer, unassigned) [Example 3(a)]"
2,2.95,"COc1cc(OC)cc([C@H](OC)C(=O)Nc2nnc(N[C@@H]3CCN(c4ccc(C)nn4)C3)s2)c1 (single isomer, unassigned) [Example 4(a)]"
3,13.5,"COC(C(=O)Nc1nnc(N[C@@H]2CCN(c3cccnn3)C2)s1)c1cccc(C2COC2)c1 (single isomer, unassigned) [Example 18(a)]"
4,2270,"COCC(C(=O)Nc1nnc(N[C@@H]2CCN(c3ccc(C)nn3)C2)s1)c1ccccc1 (single isomer, unassigned) [Example 45(a)]"
5,81.5,"COC(C(=O)Nc1nnc(N[C@@H]2CCN(c3ccc(F)nn3)C2)s1)c1cccc(N2CC(F)(F)C2)c1 (stereo partly drawn) [Example 42, 2-[3-(3,3-difluoroazetidin-1-yl)phenyl]-N-[5-[[(3R)-1-(6-fluoropyridazin-3-yl)pyrrolidin-3-yl]amino]-1,3,4-thiadiazol-2-yl]-2-methoxy-acetamide]"

# More lines, now with the values behind:
row,SMILES,IC50 [nM]
1,"COC1CN(c2cccc([C@H](OC)C(=O)Nc3nnc(N[C@@H]4CCN(c5cccnn5)C4)s3)c2)C1 (single isomer, unassigned) [3(b)]",272
2,"COc1cc(OC)cc([C@H](OC)C(=O)Nc2nnc(N[C@@H]3CCN(c4ccc(C)nn4)C3)s2)c1 (single isomer, unassigned) [4(b)]",27.3
3,"CO[C@H](C(=O)Nc1nnc(N[C@@H]2CCN(c3cccnn3)C2)s1)c1ccc(F)c(N2CC(F)C2)c1 (single isomer, unassigned) [8(b)]",38.5
4,"CO[C@H](C(=O)Nc1nnc(N[C@@H]2CCN(c3cccnn3)C2)s1)c1cccc(C2COC2)c1 (single isomer, unassigned) [18(b)]",699
5,"COC[C@H](C(=O)Nc1nnc(N[C@@H]2CCN(c3ccc(C)nn3)C2)s1)c1ccccc1 (single isomer, unassigned) [45(b)]",9.22
6,"CO[C@H](C(=O)Nc1nnc(N[C@@H]2CCN(c3cccnn3)C2)s1)c1cccc(N2CC(F)C2)c1 (single isomer, unassigned) [Example 1(a)]",2.55
7,"CO[C@H](C(=O)Nc1nnc(N[C@@H]2CCN(c3cccnn3)C2)s1)c1cccc(N2CC(F)C2)c1 (single isomer, unassigned) [Example 1(b)]",133
